Measurements as given in PubChem BioAssay (NCI).
Where “and” joins values, the source holds several entries; their conditions need not be identical. Identical values can stand only once.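 Tested at 5 concentrations; 48 h exposure; 96-well plates; endpoints linearly interpolated, else capped at highest concentration. Here, GI50 denotes the concentration required for 50% inhibition of growth. At the TGI there is no net growth.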

What was measured:
Assay in all cases: inhibition of tumour cell growth, NCI panel, 48 h
CCRF-CEM leukemia = tested on: CCRF-CEM leukemia
HOP-92 NSCLC = tested on: HOP-92 NSCLC
M14 melanoma = tested on: M14 melanoma
MCF7 breast = tested on: MCF7 breast
OVCAR-5 ovarian = tested on: OVCAR-5 ovarian
RPMI-8226 leukemia = tested on: RPMI-8226 leukemia
SF-539 CNS = tested on: SF-539 CNS
T-47D breast = tested on: T-47D breast
UACC-257 melanoma = tested on: UACC-257 melanoma
UACC-62 melanoma = tested on: UACC-62 melanoma

| Structure (SMILES) | GI50 (CCRF-CEM leukemia) [µM] | TGI (CCRF-CEM leukemia) | GI50 (HOP-92 NSCLC) [µM] | TGI (HOP-92 NSCLC) | GI50 (M14 melanoma) [µM] | TGI (M14 melanoma) | GI50 (MCF7 breast) [µM] | TGI (MCF7 breast) [µM] | GI50 (OVCAR-5 ovarian) [µM] | TGI (OVCAR-5 ovarian) | GI50 (RPMI-8226 leukemia) [µM] | TGI (RPMI-8226 leukemia) | GI50 (SF-539 CNS) [µM] | TGI (SF-539 CNS) | GI50 (T-47D breast) [µM] | TGI (T-47D breast) [µM] | GI50 (UACC-257 melanoma) [µM] | TGI (UACC-257 melanoma) | GI50 (UACC-62 melanoma) [µM] | TGI (UACC-62 melanoma) |
| --- | --- | --- | --- | --- | --- | --- | --- | --- | --- | --- | --- | --- | --- | --- | --- | --- | --- | --- | --- | --- |
| COc1cc(/C=N/NC(=O)c2cnn3c2NC(c2ccccc2)C3)ccc1OC1CCCC1 (stereo not given) | 0.691 | 10.8 µM | 0.684 | 3.69 µM | 0.646 | 5.19 µM | 0.373 | 4.07 | 1.84 | 10.9 µM | 0.527 | 4.91 µM | 0.537 | 1.99 µM | 0.704 | 10.4 | 1.45 | 12 µM | 0.573 | 3.67 µM |
| COc1ccc(-n2c(=S)sc3c(Cl)nc(C)nc32)c(OC)c1 | 2.66 | 7.45 µM | 2.06 | 8.46 µM | 1.84 | 4.05 µM | 3.67 | 15.6 | 6.15 | 20.9 µM | 3.45 | 14 µM | 2.07 | 4.55 µM | 6.42 | 21.6 | 2.35 | 5.62 µM | 2.06 | 4.69 µM |
| CCOC(=O)Nc1ccc2nc(-c3cscn3)[nH]c2c1 | 7.01 | > 100 µM | > 26.2 | > 100 µM | 2.86 | > 100 µM | 2.68 | > 100 | 26.9 | > 100 µM | 4.6 | > 100 µM | 3.32 | 20.6 µM | 5.32 | > 100 | 5.21 | > 100 µM | 4.08 | > 100 µM |
| Clc1ccccc1C(Nc1cnccn1)Nc1cnccn1 | – | > 100 µM | – | > 100 µM | – | > 100 µM | – | > 100 | – | > 100 µM | – | > 100 µM | – | > 100 µM | – | > 100 | – | > 100 µM | – | > 100 µM |
| CN(C)CCC(=O)Nc1ccc(-n2cc(-c3cccc(NC(=S)Nc4cccc(-c5cn(-c6ccc(NC(=O)CCN(C)C)cc6)nn5)c4)c3)nn2)cc1 | 21.4 | 78.3 µM | 19.5 | 53.9 µM | 49.5 | > 100 µM | 3.25 | 40.3 | 20.6 | 52.8 µM | 38.6 | > 100 µM | 28.1 | 78.2 µM | 34.1 | > 100 | 26.2 | 67.4 µM | 33.3 | 98.8 µM |
| CC1CCC2C(C)C(=O)OC2C2(C)C(=O)C=CC12 (stereo not given) | – | > 10 µM | – | > 10 µM | – | > 10 µM | – | > 10 | – | > 10 µM | – | > 10 µM | – | > 10 µM | – | > 10 | – | > 10 µM | – | > 10 µM |
| O=C1NC(=NCCc2ccc(Cl)cc2)S/C1=C\c1ccc2ncccc2c1 | 12.5 | > 25 µM | 7.32 | > 25 µM | 25 | > 25 µM | 10.2 | > 25 | > 25 | > 25 µM | > 23 | > 25 µM | 15.9 | > 25 µM | 18.1 | > 25 | > 25 | > 25 µM | 17.4 | > 25 µM |
| N#C/C(=C\c1ccc2[nH]ccc2c1)C(=O)NCCCCNC(=O)/C(C#N)=C/c1ccc2[nH]ccc2c1 | – | > 31.6 µM | – | > 31.6 µM | – | > 31.6 µM | – | > 10 | – | > 31.6 µM | – | > 10 µM | – | > 31.6 µM | – | > 10 | – | > 31.6 µM | – | > 31.6 µM |
| OCc1ccc(N(Cc2ccc(F)cc2)Cc2ccc(F)cc2)cc1Cl | 13.1 | 33.9 µM | 2.21 | 10.2 µM | 5.79 | 20.2 µM | 3.72 | 17 | 2.11 | 11.9 µM | 8.44 | 30.4 µM | 15.7 | 30 µM | 3.31 | 15.4 | 3.74 | 15.6 µM | 2.61 | 13.7 µM |
| C[C@@]1(F)[C@H](O)[C@@H](CO)O[C@H]1n1ccc(=O)[nH]c1=O | > 100 | > 100 µM | > 100 | > 100 µM | > 100 | > 100 µM | > 100 | > 100 | > 100 | > 100 µM | > 100 | > 100 µM | > 100 | > 100 µM | > 100 | > 100 | > 100 | > 100 µM | > 100 | > 100 µM |
| CCCCNC(c1ccc(Cl)cc1)C(O)c1ccc(Cl)cc1 (stereo not given) | 2.49 | 8.65 µM | 1.13 | 5.16 µM | 1.22 | 2.9 µM | 1.95 | 5.03 | 2.94 | 15.7 µM | 2.09 | 5.51 µM | 1.83 | 3.57 µM | 1.67 | 4.52 | 2.25 | 5.03 µM | 1.49 | 3.18 µM |
| COc1ccc2c(c1)C(=O)c1c-2c(OCCCN(C)C)nc2cc(Br)ccc12 | 5.2 | 23.8 µM | 6.12 | 20.4 µM | 14.8 | 29 µM | 2.32 | 13.7 | 1.71 | 3.59 µM | 15.9 | 39.7 µM | 1.69 | 3.16 µM | 10.8 | 32.2 | 16.4 | 32.9 µM | 12.5 | 26.4 µM |
| C[C@@H]1C[C@@H]([C@H](O)CC2CC(=O)NC(=O)C2)C(=O)[C@@H](C)C1 | 0.0958 | 1.15 µM and 0.406 µM | 0.178 | 7.57 µM and 2.05 µM | 0.248 | 2.8 µM and 1.6 µM | 0.216 | 7.15 | 0.317 | 14.6 µM and 4.02 µM | 0.451 | 3.02 µM and 0.494 µM | 0.214 | 2.7 µM and 0.838 µM | 0.231 | 5.07 | 0.248 | 1.65 µM and 1.03 µM | 0.321 | 8.14 µM and 10.5 µM |
| N=C1CCCC1C(=S)SCCC(N)=O (stereo not given) | – | > 100 µM | – | > 100 µM | – | > 100 µM | – | > 100 | – | > 100 µM | – | > 100 µM | – | > 100 µM | – | > 100 | – | > 100 µM | – | > 100 µM |
| COC1=CC(=O)O/C1=C(\OC)C1OC1c1ccccc1 (stereo not given) | – | > 100 µM | – | > 100 µM | – | > 100 µM | – | > 100 | – | > 100 µM | – | > 100 µM | – | > 100 µM | – | > 100 | – | > 100 µM | – | > 100 µM |
| Nc1cc2c3c(cccc3c1)C(=O)N(CCN1CCCC1)C2=O | 3.88 | > 35.6 µM | 2.94 | > 54.4 µM | 3.92 | 21.7 µM | 1.18 | 35.6 | 4.73 | > 57.6 µM | 1.23 | 11.9 µM | 3.87 | 18.2 µM | 1.93 | 9.36 | 3.35 | 24.5 µM | 2.47 | 9.99 µM |
| O=C1c2cccc3cccc(c23)C(=O)N1CCCCCN1CCN(CCN=c2cc3n(-c4ccc(Cl)cc4)c4ccccc4nc-3cc2Nc2ccc(Cl)cc2)CC1 | 7.38 | 25.2 µM | 7.32 | 19.7 µM | 7.53 | 16.5 µM | 8.24 | 38.4 | 10.2 | 20.1 µM | 5.22 | 16.9 µM | 12.1 | 31 µM | 32.8 | > 50 | 13.7 | 31.1 µM | 7.5 | 20.5 µM |
| Cn1c(COC(=O)NCCn2ccnc2)nc2c(N3CCOCC3)nc(-c3ccccc3)nc21 | 0.254 | 1.44 µM | 0.343 | 1.72 µM | 0.561 | 1.92 µM | 0.356 | 1.89 | 1.39 | 3.01 µM | 0.222 | 1.05 µM | 1.17 | 2.4 µM | 1.43 | 4.17 | 1.28 | 2.86 µM | 1.23 | 2.5 µM |
| CC1=NN(c2cccc(Cl)c2)C(=O)/C1=C\c1cn(CC(O)CN2CCCCC2)c2ccccc12 (stereo not given) | 3.38 | > 100 µM | 14.8 | 38 µM | 1.75 | 3.29 µM | 6.47 | 21.5 | 14.6 | 33.9 µM | 2.91 | 8.73 µM | 10.2 | 26.6 µM | 15.8 | 36.2 | 2.35 | 4.62 µM | 2.17 | 4.9 µM |
| O=C(Nc1ccc(Cl)cc1C(F)(F)F)C(=O)Nn1c(=S)[nH]c2ccccc2c1=O | – | > 100 µM | – | > 100 µM | – | > 100 µM | – | > 100 | – | > 100 µM | – | > 100 µM | – | > 100 µM | – | > 100 | – | > 100 µM | – | > 100 µM |
| Oc1ccc(Cl)cc1C=Nc1cnc2ccccc2c1 | – | 7.1 µM | – | > 100 µM | – | > 100 µM | – | > 100 | – | > 100 µM | – | 85.6 µM | – | 45.8 µM | – | 51.3 | – | 45.3 µM | – | > 100 µM |
